From the NIST ThermoML archive (doi:10.1016/j.tca.2005.11.005)

Test: molar heat capacity at constant pressure; xn = mol fraction of the nth substance listed
Conditions: 101 kPa, Crystal, Small sample (50 mg) DSC

[O-2].[O-2].[U+4] [uranium dioxide] + [Ce+4].[O-2].[O-2]
x1 = 1
Conditions | molar heat capacity at constant pressure [J/K/mol]
298 K | 64
300 K | 64.1
400 K | 72.7
500 K | 77.5
600 K | 80.4
700 K | 82.6
800 K | 85.9

[Ce+4].[O-2].[O-2] [ceric oxide] + [O-2].[O-2].[U+4]
molar heat capacity at constant pressure [J/K/mol]
Conditions | 298 K | 300 K | 400 K | 500 K | 600 K | 700 K | 800 K
x2 = 0 | 62.6 | 62.7 | 68.8 | 73 | 76.5 | 78.6 | 79.3
x2 = 0.197 | 62.8 | 64 | 73.3 | 81.2 | 84.6 | 84.5 | 85.2
x2 = 0.491 | 64.2 | 64.8 | 76.8 | 85.9 | 89.2 | 89.6 | 88.3
x2 = 0.809 | 70.1 | 70.4 | 79.7 | 86 | 88.9 | 90.3 | 92
